The text below walks through data of patent US20250262167A1, “COMPOUNDS, TARGETS AND PATHWAYS FOR MACROPHAGE MODULATION” (Massachusetts Institute of Technology, priority 2020, published 2025).

Molecules are shown by their SMILES.

The test system of experiment [1] is ImKCs (immortalized line of mouse Kupffer cells). Description: Seahorse ECAR/OCR (glycolysis, OxPhos) in ImKCs. Format: cell-based. On the procedure:
Shown are representative data of three independent experiments. […] Data are presented as the mean±sd (n=4).
FIGS. 21A-21I show DPI stimulates glycolysis through GPR3 and β-arrestin2. FIGS. 21A-21B show DPI-stimulated glycolysis is independent of the NOX activity. […] The mean fluorescence intensity (MFI) of 2-NBDG in cells was measured by flow cytometry and normalized to DMSO controls of wildtype BMDMs. Data are presented as the mean±sd (n=3). […] ImKCs were transfected with siRNA specific for Gpr3 or a scramble siRNA as control. […] Data are presented as the mean±sd (n=4). […] Data are presented as the mean±sd (n=12). […] Abbr2^−/− ImKC were constructed by CRISPR-Cas9-mediated gene editing. […] Data are presented as the mean±sd (n=4). […] ImKCs were transfected with Abbr2-GFP fusion gene and stimulated with DMSO, DPI (50 nM), or S1P (3 mM). The GFP signal was captured with a TIRF microscope at indicated time points. Shown are representative data of GFP signal at 0 min and 10 min, and merged signal from three independent experiments.
Specific parameters for glycolytic capacity and glycolytic reserve were calculated and summarized based on two independent experiments. […] The GFP signal was captured with a TIRF microscope at indicated time points. Shown are representative data of GFP signal at 0 min and 10 min, and the merged signal from three independent experiments.
OCR and ECAR were measured in isolated tissues or cultured ImKCs using the Seahorse XFe Extracellular Flux Analyzer (Agilent). For tissue respiration assays, 1.0 mg adipose tissue was dissected from inguinal WAT depots by using a surgical biopsy instrument (Integra Miltex Standard Biopsy Punches, Thermo Fisher) and placed into XF96 Islet Capture Microplates and pre-incubated with XF assay medium with pH value at 7.4. XF assay medium supplemented with 1 mM sodium pyruvate, 2 mM GlutaMax™-I, and 25 mM glucose. Isolated MDMs or Kupffer cells were subjected to a mitochondrial stress test by adding oligomycin (2 μM) followed by carbonyl cyanide 4-(trifluoromethoxy), phenylhydrazone (FCCP, 5 μM), and antimycin (1 μM). For glucose stress assay and ECAR measurement, XF assay medium was supplemented only with GlutaMax™-I. Tissue or cells were subjected to a glucose stress test by adding highly concentrated glucose (for tissue, 25 mM; for cells, 10 mM), followed by adding oligomycin (5 μM), FCCP (5 μM), and 2-DG (50 mM). Cells were seeded in culture dishes, and the medium was changed after 6 hours with serum-free DMEM. Cells were incubated for 12-16 hours, and the culture medium was then collected for measurement of glucose and lactate concentrations. Glucose levels were determined using a glucose (GO) assay kit (Sigma). Glucose consumption was the difference in glucose concentration when compared with DMEM. Lactate levels were determined using a lactate assay kit (Eton Bioscience).
DPI is an agonist of GPR3 and an inhibitor of […] oxidase (NOX). We first determined the requirement of NOX in DPI-stimulated glycolysis.
To determine the requirement of GPR3, we knocked down GPR3 by siRNA (siGpr3) in ImKCs.
β-arrestin2, encoded by Arrb2, has been reported to bind to GPR3 and is required for GPR3 signaling. To investigate the requirement of 0-arrestin2 in DPI-stimulated glycolysis, we constructed Arrb2^−/− ImKCs using CRISPR-Cas9 mediated gene editing (FIG. 28F).

For another experiment, the system named is ImKCs. The note with it: 6 hours, dose-dependent.
The test system of experiment [2] is luciferase-expressing human B lymphoma cells (GMB). Nature of the experiment: Human B lymphoma (GMB-luc) model in NSG mice. The experiment is classed as in vivo, mouse. On the procedure:
NSG mice were grafted with 1×10^7 GMB-luc cells and dosed twice at 14 and 21 days later with 0.5 mg/kg Rituximab (Ritu) and/or 300 mg/kg thiostrepton (Thio). Tumor burden was monitored (FIG. 18A) and quantified (FIG. 18B) by imaging the luciferase activity in vivo (n=5˜6 mice per group). Data are shown as mean±s.e.m. At day 28 post tumor engraftment, bone marrow cells were analyzed by flow cytometry (FIG. 18C). Shown are representative F4/80 versus CD11b staining profiles gating on CD45^+ cells (top panel), Ly6C versus Ly6G staining profiles gating on F4/80^+CD11b^+ cells (bottom panel). MHCII histograms gating on macrophages from FIG. 18C. […] Data shown are mean±s.d. * P<0.05, ** P<0.01 and *** P<0.001, by T-test.
For the melanoma model, an inoculum of 1×10^6 B16F10 tumor cells was injected subcutaneously on the flank of 8- to 10-week-old male B6 mice in […] sterile PBS. Six days following tumor inoculation, mice were randomized into 4 treatment groups including control (PBS or DMSO), tumor-targeting antibody TA99, compound, compound plus TA99. TA99 was administered at […] per dose intraperitoneally (I.P.). The compound was administrated at the indicated dosage by either I.P. or paratumor injection subcutaneously (S.C.). All mice were dosed at day 6 and day 12 post tumor inoculation for a total of 2 treatments. Tumor size was measured as an area (longest dimension×perpendicular dimension) at day 6, day 12 and day 18 post tumor inoculation. Mice were euthanized for analysis at day 18 post tumor inoculation. For the lymphoma model, 1×10^7 GMB cells were injected through tail intravenously in 100 μL sterile PBS into 10- to 12-week-old male NSG mice. Mice were treated two weeks post tumor cell engraftment. Tumor-targeting antibody Rituxumab (InvivoGen) was administered at 10 mg/kg intraperitoneally. The compound was administrated I.P. at the indicated dosage. All mice were dosed at week 2 and week 3 post tumor injection for a total of 2 treatments. […]

Setting [3] is: 5, 50 and 500 nM, short-term, dose-dependent.

In the case of `c1ccc2c(c1)[I+]c1ccccc1-2` [Diphenyleneiodonium chloride], in experiment [1] (setting [3]), the ECAR result is recorded as “immediate increase” and the OCR result was “concomitant decrease”. The “glycolytic capacity and reserve” value in experiment [1] (50 and 500 nM, 24 hrs) is reported as “significant increase”. Further, in experiment [1] (Arrb2−/− ImKCs, 50 nM), the “glycolysis and glycolytic capacity” value is reported as “did not stimulate any increase”. Moreover, the “glycolysis, glycolytic capacity and glucose consumption” value in experiment [1] (siGpr3 ImKCs, 50 nM) is “did not stimulate any increase”. In experiment [1] (siGpr3 ImKCs, 500 nM, lower than in scramble siRNA ImKCs), the “glycolysis and glycolytic capacity” value was “significant increase”. Also, in the experiment on ImKCs, the glucose level entry is given as “decreased significantly”; the “levels of TCA cycle intermediates” value is recorded as “all decreased”; the “levels of glycolysis intermediates (G6P, F1,6BP, G3P, pyruvate, lactate)” value was “increased significantly”.

For `C=C(NC(=O)C(=C)NC(=O)c1csc(C2=N[C@@H]3c4csc(n4)[C@H]4NC(=O)c5csc(n5)[C@H]([C@](C)(O)[C@@H](C)O)NC(=O)[C@H]5CSC(=N5)/C(=C/C)NC(=O)[C@H]([C@@H](C)O)NC(=O)c5csc(n5)[C@]3(CC2)NC(=O)[C@H](C)NC(=O)C(=C)NC(=O)[C@H](C)NC(=O)[C@H]([C@@H](C)CC)N[C@@H]2C=Cc3c([C@H](C)O)cc(nc3[C@H]2O)C(=O)O[C@@H]4C)n1)C(N)=O` [Thiostrepton], in experiment [2] (alone, 300 mg/kg, luciferase imaging), the “tumor burden in the bone marrow” value is reported as “significantly reduced”. Also, the “tumor burden in the bone marrow, with rituximab” value in experiment [2] (together with rituximab, luciferase imaging) is “significantly reduced”. Also, in experiment [2] (vs vehicle or rituximab), the “F4/80+CD11b+ macrophages with higher MHCII in bone marrow” value was “higher percentages”.
